Data reported in ChEMBL document CHEMBL1629631, “In vitro activities of various antifungal drugs against Aspergillus terreus: Global assessment using the methodology of the European committee on antimicrobial susceptibility testing” (2009).
Values after ≈ are worked out from the molar mass of the structure shown. Numbered stars: 1 amine (or outer) side, 2 acyl side, 3 side chain; on linkers, the order of the positions; unused ones are H or OH. Bridge positions count the residues as written; N and C are the ends. Square brackets hold non-standard residues; d marks the D form. Peptide text beside a SMILES is read from it. * marks the point of attachment. hTyr(3S-OH,4S-OH,3'-OSO3H) = N[C@H](C(=O)O)[C@H](O)[C@@H](O)c1ccc(O)c(OS(=O)(=O)O)c1; pTerphenylCO(4''-OnC5H11) = CCCCCOc1ccc(-c2ccc(-c3ccc(C(=O)*)cc3)cc2)cc1; Orn(4R-OH,5R-OH) = O=C([C@H](C[C@@H](O)[C@@H](O)N[*:3])N[*:1])[*:2]; hTyr(3S-OH,4S-OH) = N[C@H](C(=O)O)[C@H](O)[C@@H](O)c1ccc(O)cc1; Pro(3S-OH,4S-Me) = C[C@H]1CN[C@H](C(=O)O)[C@H]1O; X1 = CCCCCOc1ccc(-c2cc(-c3ccc(C(=O)*)cc3)no2)cc1; Gln(3R-OH) = NC(=O)C[C@@H](O)[C@H](N)C(=O)O; Hyp = O=C(O)[C@@H]1C[C@@H](O)CN1

Experiments:
Aspergillus terreus [1] = assay: Antimicrobial activity against Aspergillus terreus clinical isolate after 48 hrs by EUCAST test; type: functional
Aspergillus terreus [2] = assay: Antimicrobial activity against Aspergillus terreus environmental isolate after 48 hrs by EUCAST test; type: functional

MIC50 (Aspergillus terreus [1])	MIC90 (Aspergillus terreus [1])	MIC50 (Aspergillus terreus [2])	MIC90 (Aspergillus terreus [2])	SMILES
1 µg/mL (≈ 0.915 µM)	2 µg/mL (≈ 1.83 µM)	1 µg/mL (≈ 0.915 µM)	2 µg/mL (≈ 1.83 µM)	CC[C@H](C)C[C@H](C)CCCCCCCCC(=O)N[C@H]1C[C@@H](O)[C@@H](NCCN)NC(=O)[C@@H]2[C@@H](O)CCN2C(=O)[C@H]([C@H](O)CCN)NC(=O)[C@H]([C@H](O)[C@@H](O)c2ccc(O)cc2)NC(=O)[C@@H]2C[C@@H](O)CN2C(=O)[C@H]([C@@H](C)O)NC1=O [CASPOFUNGIN]
0.125 µg/mL (≈ 0.177 µM)	0.5 µg/mL (≈ 0.709 µM)	0.125 µg/mL (≈ 0.177 µM)	0.5 µg/mL (≈ 0.709 µM)	CCC(C)n1ncn(-c2ccc(N3CCN(c4ccc(OCC5COC(Cn6cncn6)(c6ccc(Cl)cc6Cl)O5)cc4)CC3)cc2)c1=O (stereo unspecified) [ITRACONAZOLE]
0.015 µg/mL (≈ 0.0118 µM)	0.03 µg/mL (≈ 0.0236 µM)	0.015 µg/mL (≈ 0.0118 µM)	0.03 µg/mL (≈ 0.0236 µM)	CCCCCOc1ccc(-c2cc(-c3ccc(C(=O)N[C@H]4C[C@@H](O)[C@@H](O)NC(=O)[C@@H]5[C@@H](O)[C@@H](C)CN5C(=O)[C@H]([C@H](O)CC(N)=O)NC(=O)[C@H]([C@H](O)[C@@H](O)c5ccc(O)c(OS(=O)(=O)O)c5)NC(=O)[C@@H]5C[C@@H](O)CN5C(=O)[C@H]([C@@H](C)O)NC4=O)cc3)no2)cc1 [MICAFUNGIN] (X1-[Orn(4R-OH,5R-OH)]T[Hyp][hTyr(3S-OH,4S-OH,3'-OSO3H)][Gln(3R-OH)][Pro(3S-OH,4S-Me)]; lactam 1-C)

Continued, molecule first:

SMILES	MIC50 (Aspergillus terreus [1])	MIC90 (Aspergillus terreus [1])	MIC50 (Aspergillus terreus [2])	MIC90 (Aspergillus terreus [2])
C[C@@H]1[C@H](O)[C@@H](C)/C=C/C=C/C=C/C=C/C=C/C=C/C=C/[C@H](O[C@@H]2O[C@H](C)[C@@H](O)[C@H](N)[C@@H]2O)C[C@@H]2O[C@](O)(C[C@@H](O)C[C@@H](O)[C@H](O)CC[C@@H](O)C[C@@H](O)CC(=O)O[C@H]1C)C[C@H](O)[C@H]2C(=O)O [AMPHOTERICIN B]	2 µg/mL (≈ 2.16 µM)	2 µg/mL (≈ 2.16 µM)	2 µg/mL (≈ 2.16 µM)	2 µg/mL (≈ 2.16 µM)
CCCCCOc1ccc(-c2ccc(-c3ccc(C(=O)N[C@H]4C[C@@H](O)[C@@H](O)NC(=O)[C@@H]5[C@@H](O)[C@@H](C)CN5C(=O)[C@H]([C@@H](C)O)NC(=O)[C@H]([C@H](O)[C@@H](O)c5ccc(O)cc5)NC(=O)[C@@H]5C[C@@H](O)CN5C(=O)[C@H]([C@@H](C)O)NC4=O)cc3)cc2)cc1 [ANIDULAFUNGIN] ({pTerphenylCO(4''-OnC5H11)}-[Orn(4R-OH,5R-OH)]T[Hyp][hTyr(3S-OH,4S-OH)]T[Pro(3S-OH,4S-Me)]; lactam 1-C)	0.015 µg/mL (≈ 0.0132 µM)	0.03 µg/mL (≈ 0.0263 µM)	0.015 µg/mL (≈ 0.0132 µM)	0.03 µg/mL (≈ 0.0263 µM)
CC[C@@H]([C@H](C)O)n1ncn(-c2ccc(N3CCN(c4ccc(OC[C@@H]5CO[C@@](Cn6cncn6)(c6ccc(F)cc6F)C5)cc4)CC3)cc2)c1=O [POSACONAZOLE]	0.12 µg/mL (≈ 0.171 µM)	0.12 µg/mL (≈ 0.171 µM)	0.12 µg/mL (≈ 0.171 µM)	0.12 µg/mL (≈ 0.171 µM)
C[C@@H](c1nc(-c2ccc(C#N)cc2)cs1)[C@](O)(Cn1cncn1)c1ccc(F)cc1F [RAVUCONAZOLE]	1 µg/mL (≈ 2.29 µM)	2 µg/mL (≈ 4.57 µM)	1 µg/mL (≈ 2.29 µM)	2 µg/mL (≈ 4.57 µM)
CN(C/C=C/C#CC(C)(C)C)Cc1cccc2ccccc12 [TERBINAFINE]	0.25 µg/mL (≈ 0.858 µM)	0.5 µg/mL (≈ 1.72 µM)	0.25 µg/mL (≈ 0.858 µM)	0.5 µg/mL (≈ 1.72 µM)
C[C@@H](c1ncncc1F)[C@](O)(Cn1cncn1)c1ccc(F)cc1F [VORICONAZOLE]	1 µg/mL (≈ 2.86 µM)	2 µg/mL (≈ 5.73 µM)	1 µg/mL (≈ 2.86 µM)	2 µg/mL (≈ 5.73 µM)
